Measurements from patent US8754057B2, “Inhibition of apoptosis-specific eIF-5A(eIF-5A1″) with antisense oligonucleotides and siRNA as anti-inflammatory therapeutics” (Senesco Technologies, Inc., priority 2003, dated 2014).

Experiments:
[1] = test system: corpus luteum; assay: DNA laddering in rat corpus luteum after PGF-2α; assay type: in vivo; details: superovulated rat corpus lutea; 0, 1, or 24 hours after injection
Description: The degree of apoptosis was determined by DNA laddering. Genomic DNA was isolated from dispersed corpus lineal cells or from excised corpus luteum tissue using the QIAamp DNA Blood Kit (Qiagen) according to the manufacturer's instructions. Corpus luteum tissue was excised before the induction of apoptosis by treatment with PGF-2α, 1 hour and 24 hours after induction of apoptosis. The isolated DNA was end-labeled by incubating 500 ng of DNA with 0.2 μCi [α-^32P]dCTP, 1 mM Tris, 0.5 mM EDTA, 3 units of Klenow enzyme, and […] each of dATP, dGTP, and dTTP at room temperature for 30 minutes. Unincorporated nucleotides were removed by passing the sample through a 1 ml Sepadex G-50 column according to Sambrook et al. The samples were then resolved by Tris-acetate-EDTA (1.8%) gel electrophoresis. The gel was dried for 30 minutes at room temperature under vacuum and exposed to x-ray film at −80° C. for 24 hours.
In one experiment, the degree of apoptosis in superovulated rat corpus lutea was examined either 0, 1, or 24 hours after injection with PGF-2α. In the 0 hour control, the ovaries were removed without PGF-2α injection. […] In this figure, the top panel is an autoradiograph of the Northern blot probed with the ^32P-dCTP-labeled 3′-untranslated region of rat corpus luteum apoptosis-specific DHS cDNA. The lower panel is the ethidium bromide stained gel of total RNA. […]

[2] = test system: apoptosis-specific eIF-5A and DHS; assay: Northern blot of rat corpus luteum RNA after PGF-2α; assay type: in vivo
Excerpt: […] of total RNA isolated from rat corpus luteum at various stages of apoptosis were separated on 1% denatured formaldehyde agarose gels and immobilized on nylon membranes. The full-length rat apoptosis-specific eIF-5A cDNA (SEQ ID NO:1) labeled with ^32P-dCTP using a random primer kit (Boehringer) was used to probe the membranes 7×10^7. Alternatively, full length rat DHS cDNA (SEQ ID NO:6) labeled with ^32P-dCTP using a random primer kit (Boehringer) was used to probe the membranes (7×10^7 cpm). The membranes were washed once with 1×SSC, 0.1% SDS at room temperature and three times with 0.2×SSC, 0.1% SDS at 65° C. The membranes were dried and exposed to X-ray film overnight at −70° C.

[3] = test system: apoptosis-specific eIF-5A; assay: Apoptosis-specific eIF-5A expression in U937 cells with PMA or LPS; assay type: cell-based, human
Description: (§1) U937 cells were collected and counted 16 hours after electroporation. 200,000 cells in 1 ml of media were added to each well of 24-well plates. Macrophage differentiation was stimulated by adding phorbol 12-myristate 13-acetate (PMA; 100 ng/ml). After 48 h with PMA., >80% of the monocytes had transformed from cells in suspension (monocytes) to adherent cells (macrophages). At 48 hours the media and any non-adherent cells were removed and fresh RPMI media with 10% FBS (1 ml per well) was added. The cells were left for 24 hours in fresh media to become quiescent.
72 hours after PMA addition to U937 cells, lipopolysaccharide (LPS; 100 ng/ml; from E. coli, serotype 0111), interferonγ (IFNγ; 100 Units/ml), or a combination of LPS and IFNγ were added to the wells. Samples were collected before stimulator addition (72h), and at various times after addition as outlined in FIG. 108. To collect samples for analysis of cytokine secretion, the media from each well was transferred to clean microcentrifuge tubes and cleared of any debris by centrifugation at 13000×g for 3 mins. The media was stored at −20° C. in 200-250 μl aliquots prior to analysis. […]
The protein concentration in the cell lysates was determined by bicinchoninic acid assays (BCA) with bovine serum albumin used as the standard. […]

[4] = test system: U937 cells; assay: Induction of macrophage differentiation in U937 cells; assay type: cell-based, human; details: 100 ng/ml PMA, 48 h
Description: as §1

[5] = test system: lamina cribrosa cell line #506; assay type: cell-based, human; details: confluent LC cells, 48 hours; 50 μM camptothecin, 10 ng/ml TNF-α; Hoescht staining
Description: FIG. 83 is a graph showing percent apoptosis of lamina cribrosa cell line #506 in response to treatment with camptothecin and TNF-α. Lamina cribrosa cell line #506 cells were seeded at 40,000 cells per well onto an 8-well culture slide. Three days later the confluent LC cells were treated with either 10 ng/ml TNF-α, 50 μM camptothecin, or 10 ng/ml TNF-α plus 50 μM camptothecin. An equivalent volume of DMSO, a vehicle control for camptothecin, was added to the untreated control cells. The cells were stained with Hoescht 33258 48 hours after treatment and viewed by fluorescence microscopy using a UV filter. Cells with brightly stained condensed or fragmented nuclei were counted as apoptotic.
Apoptosis was induced in lamina cribrosa cells using a combination of 50 μM camptothecin (Sigma) and 10 ng/ml TNF-α (Leinco Technologies).
Since TNF-α is believed to play an important role during the glaucomatous process, the susceptibility of LC cells to the cytotoxic effects of TNF-α was examined. Confluent LC cells were exposed to either camptothecin, TNF-α, or a combination of camptothecin and TNF-α for 48 hours (FIG. 83).

[6] = test system: apoptosis-specific eIF-5A; assay: Apoptosis-specific eIF-5A expression in LC cells during camptothecin or TNF-α plus camptothecin treatment; assay type: cell-based, human; details: LC cells #506; 50 μM camptothecin, 10 ng/ml TNF-α; 1, 4, 8, 24 hours
Description: Lamina cribrosa cell #506 cells were seeded at 40,000 cells per well onto a 24-well plate. Three days later the LC cells were treated with either 50 μM camptothecin or 10 ng/ml TNF-α plus 50 μM camptothecin and protein lysate was harvested 1, 4, 8, and 24 hours later. An equivalent volume of DMSO was added to control cells as a vehicle control and cell lysate was harvested 1 and 24 hours later. 5 μg of protein from each sample was separated by SDS-PAGE, transferred to a PVDF membrane, and Western blot with anti-apoptosis-specific eIF-5A antibody. The bound antibody was detected by chemiluminescence and exposed to x-ray film. The membrane was then stripped and re-blotted with anti-β-actin as an internal loading control.
Protein was isolated for Western blotting from lamina cribrosa cells growing on 24-well plates by washing the cells twice in PBS (8 g/L NaCl, 0.2 g/L KCl, 1.44 g/L Na2HPO4, and 0.24 g/L KH2PO4) and then adding 50 μl of lysis buffer [2% SDS, 50 mM Tris-HCl (pH 7.4)]. The cell lysate was collected in a microcentrifuge tube, boiled for 5 minutes and stored at −20° C. until ready for use. Protein concentrations were determined using the Bicinchoninic Acid Kit (BCA; Sigma). For Western blotting, 5 μg of total protein was separated on a 12 SDS-polyacrylamide gel. The separated proteins were transferred to a polyvinylidene difluoride membrane. […]

Structure (SMILES): CCCCC[C@H](O)/C=C/[C@@H]1[C@@H](C/C=C\CCCC(=O)O)[C@@H](O)C[C@H]1O [PGF-2α]
- laddering of low molecular weight DNA fragments [1]: discernible within 1 hour after induction of apoptosis and is pronounced by 24 hours
- expression of DHS [2]: increased substantially within 1 hour of treatment
- expression of apoptosis-specific eIF-5A [2]: significantly enhanced

Structure (SMILES): CCCCCCCCCCCCCC(=O)O[C@@H]1[C@@H](C)[C@@]2(O)[C@@H](C=C(CO)C[C@]3(O)C(=O)C(C)=C[C@@H]23)[C@@H]2C(C)(C)[C@]12OC(C)=O [PMA, phorbol 12-myristate 13-acetate]
- apoptosis-specific eIF-5A expression [3]: upregulated
- monocytes transformed from cells in suspension to adherent cells (macrophages) [4]: > 80%

Structure (SMILES): CC[C@@]1(O)C(=O)OCc2c1cc1n(c2=O)Cc2cc3ccccc3nc2-1 [camptothecin]
- cell death of LC cells [5]: approximately 30%
- expression of apoptosis-specific eIF-5A protein [6]: did not alter significantly
